{"source": "patent EP1233943B1", "about": "“IONIZABLE INDOLINONE DERIVATIVES AND THEIR USE AS PTK LIGANDS” (Sugen, Inc., priority 1999, dated 2001)", "key": {"[1]": {"assay": "Oral bioavailability of formulations in beagle dogs", "assay_type": "in vivo", "settings": "higher doses in fasted conditions", "method": "The formulation described below enhance the oral bioaviability of COMPOUND IV in beagle dogs, a preclinical absorption model.\nBoth formulations contain 50 mg/gm of Pluronic F-68. The formulation at 50 mg/gm of COMPOUND IV contains 900 mgs of sesame oil and the one that contains 250 mg/gm of COMPOUND IV contains 700 mgs of sesame oil.\nAUC refers to the area under the curve of the plasma concentration time curve and represents oral bioavilability (BA). Higher AUC indicates higher BA."}, "[2]": {"assay": "Subcutaneous xenograft model in athymic mice, A431", "assay_type": "in vivo, human", "settings": "mouse, in vivo, 100 mg/kg/day; 100 mg/kg/d IP daily in DMSO", "method": "(§1) In most experiments, compound was administered daily.\n(§2) Tumor growth was measured using venier calipers."}, "A431 (human epidermal)": {"test_system": "A431 (human epidermal)", "assay": "Subcutaneous xenograft model in athymic mice, A431", "assay_type": "in vivo", "settings": "100 mg/kg/d IP daily in DMSO; day 24; BALB/c nu/nu mice", "method": "as §1, §2"}, "in vivo [3]": {"assay": "in vivo", "quoted_text": "C6 cells were cultured in Ham's F-10 supplemented with 5% FBS and 2mM L-glutamine. […] All cell cultures were maintained at 37°C in a humidified atmosphere of 5-10% CO2.\nTumor cell lines (0.6 - 10 x 10^6 cells/animal; n = 8-20 animals/group) were implanted SC in the hindflank region of 8-12 week old BALB/c nu/nu female mice.\nTumor growth was measured using venier calipers. Tumor volumes were calculated as the product of length x width x height. Statistical analysis was carried out using Student's t-test.\nC6 cells were implanted SC into athymic mice on day zero. […] On Day 16, all Group 3 animals were humanely sacrificed due to tumor burden (mean tumor diameter approximately 1300 mm^3), and the growth of tumors in Groups 1 and 2 was monitored until the mean tumor burden of each group reached 1300 mm^3.\nBeginning one day post-implantation, compound (200 mg/kg/day in solution in a Labrasol®-containing vehicle) was administered to mice PO. Tumor growth was measured using venier calipers and tumor volumes were calculated as the product of length x width x height."}, "in vivo [4]": {"assay": "in vivo", "settings": "mouse, in vivo, ip, 75 mg/kg/day", "method": "as §1, §2"}, "A375 (human melanoma)": {"test_system": "A375 (human melanoma)", "assay": "in vivo", "settings": "75 mg/kg/d IP in DMSO, dosed 3x/week; day 29; BALB/c nu/nu mice", "method": "as §1, §2"}, "in vivo [5]": {"assay": "in vivo", "settings": "mouse, in vivo, ip, 75 mg/kg/day", "method": "as §1, §2", "remark": "listed apart in the source"}, "[6]": {"test_system": "EpH4-VEGF1 (murine epithelial)", "assay": "in vivo", "settings": "75 mg/kg/d IP daily in DMSO; day 18; BALB/c nu/nu mice", "method": "as §1, §2"}, "SF767T (human glioma)": {"test_system": "SF767T (human glioma)", "settings": "75 mg/kg/d IP daily in DMSO; day 21; BALB/c nu/nu mice", "method": "(§3) SF763T, SF767T, and SKOV3TP5 were derived by implanting the parental cells SC into BALB/c nu/nu mice.\n(§4) For the SF763T and SF767T cell lines, two to five mL of appropriate medium was added to the slurry and the tumor pieces were further mechanically teased apart. […] Medium was changed every two to three days. After three to five passages, the antibiotic supplements were removed and the cells maintained in antibiotic-free medium.\nas §1, §2"}, "SF763T (human glioma)": {"test_system": "SF763T (human glioma)", "settings": "75 mg/kg/d IP daily in DMSO; day 21; BALB/c nu/nu mice", "method": "as §3, §4, §1, §2"}, "SKOV3TP5 (human ovarian)": {"test_system": "SKOV3TP5 (human ovarian)", "settings": "75 mg/kg/d IP daily in DMSO; day 25; BALB/c nu/nu mice", "method": "as §3\nFor the SKOV3TP5 cells, fragments of resected tumors were injected SC into mice for in vivo passaging. This procedure was repeated five times before cells were returned to culture as described above.\nas §1, §2"}}, "note": "Like-named read-outs stand apart in the source and are kept apart here.", "data": [{"smiles": "Cc1[nH]c(C=C2C(=O)Nc3ccccc32)c(C)c1CCC(=O)O", "note": "[Example 1, 3-[2,4-dimethyl-5-(2-oxo-1,2-dihydro-indol-3-ylidenemethyl)-1H-pyrrol-3-yl]-propionic acid]", "values": [{"measurement": "bioavailability", "setting": "[1]", "value": "low bioavailability"}, {"measurement": "mortality", "setting": "[2]", "value": 12.5, "unit": "%"}, {"measurement": "% Inhibition @ (day)", "setting": "A431 (human epidermal)", "value": "84 (24) %"}, {"measurement": "solubility", "setting": "physchem; 2% polysorbate-80", "value": "< 13", "unit": "mg/mL"}, {"measurement": "solubility", "setting": "physchem; 30% peg 300 in buffer, pH 8.2, organic solvent or mixture", "value": 32, "unit": "mg/mL"}, {"measurement": "mortality", "setting": "in vivo [3]; ip, 100 mg/kg/day", "value": 12.5, "unit": "%"}, {"measurement": "mortality", "setting": "in vivo [3]; po, 200 mg/kg/day", "value": 10, "unit": "%"}, {"measurement": "mortality", "setting": "in vivo [4]", "value": 0, "unit": "%"}, {"measurement": "% Inhibition @ (day)", "setting": "A375 (human melanoma)", "value": "56(29) %"}, {"measurement": "% Inhibition @ (day)", "setting": "C6 (rat glioma); 100 mg/kg/d IP daily in DMSO, day 18, BALB/c nu/nu mice", "value": "65 (18) %"}, {"measurement": "% Inhibition (at day)", "setting": "C6 (rat glioma); IP 25 mg/kg Daily X 5, day 18", "value": "1(18) %"}, {"measurement": "% Inhibition (at day)", "setting": "C6 (rat glioma); IP 50 mg/kg Daily X 5, day 18", "value": "68 (18) %"}, {"measurement": "% Inhibition (at day)", "setting": "C6 (rat glioma); IP 50 mg/kg Daily, day 18", "value": "27 (18) %"}, {"measurement": "% Inhibition (at day)", "setting": "C6 (rat glioma); IP 50 mg/kg Three times weekly, day 18", "value": "25 (18) %"}, {"measurement": "% Inhibition (at day)", "setting": "C6 (rat glioma); IP 50 mg/kg Twice weekly, day 19", "value": "36 (19) %"}, {"measurement": "% Inhibition (at day)", "setting": "C6 (rat glioma); IP 75 mg/kg Daily X 5, day 18", "value": "54 (18) %"}, {"measurement": "% Inhibition (at day)", "setting": "C6 (rat glioma); IP 75 mg/kg Daily, day 18", "value": "53 (18) %"}, {"measurement": "% Inhibition (at day)", "setting": "C6 (rat glioma); IP 75 mg/kg Three times weekly, day 18", "value": "29 (18) %"}, {"measurement": "% Inhibition (at day)", "setting": "C6 (rat glioma); IP 75 mg/kg Twice weekly, day 19", "value": "26 (19) %"}, {"measurement": "efficacy on established tumors", "setting": "C6 (rat glioma); IP 75 mg/kg/day from Day 7, when measurable tumors were present", "value": "efficacious"}, {"measurement": "% Inhibition (at day)", "setting": "C6 (rat glioma); IP 100 mg/kg Daily X 5 followed by Once weekly, day 15", "value": "42(15) %"}, {"measurement": "% Inhibition (at day)", "setting": "C6 (rat glioma); IP 100 mg/kg Daily, day 18", "value": "65 (18) %"}, {"measurement": "% Inhibition (at day)", "setting": "C6 (rat glioma); IP 100 mg/kg Three times weekly, day 18", "value": "40 (18) %"}, {"measurement": "% Inhibition (at day)", "setting": "C6 (rat glioma); IP 100 mg/kg Twice weekly, day 19", "value": "38 (19) %"}, {"measurement": "tumor growth inhibition", "setting": "C6 (rat glioma); IP 100 mg/kg twice weekly or three times weekly, statistically significant", "value": "approximately 40%"}, {"measurement": "% Inhibition (at day)", "setting": "C6 (rat glioma); IP 150 mg/kg Daily X 5 followed by once weekly, day 15", "value": "51 (15) %"}, {"measurement": "tumor growth inhibited", "setting": "C6 (rat glioma); PO 200 mg/kg/day in a Labrasol-containing vehicle, Day 18 post-implantation, compared to vehicle-treated animals", "value": 82, "unit": "%"}, {"measurement": "mortality", "setting": "in vivo [5]", "value": 0, "unit": "%"}, {"measurement": "% Inhibition @ (day)", "setting": "[6]", "value": "34 (18) %"}, {"measurement": "% Inhibition @ (day)", "setting": "SF767T (human glioma)", "value": "46 (21) %"}, {"measurement": "% Inhibition @ (day)", "setting": "SF763T (human glioma)", "value": "48 (21) %"}, {"measurement": "% Inhibition @ (day)", "setting": "SKOV3TP5 (human ovarian)", "value": "9 (25) %"}]}]}
